# Data from patent US6528516B1, “Methods for reducing intraocular pressure using A3 adenosine receptor antagonists” (Trustees of the University of Pennsylvania, The Center for …, priority 1998, dated 2003).
# “Also recorded” adds a separate entry of the source. Like-named read-outs stand apart in the source and are kept apart here.
# Tests used:
# [1] = tested on: bovine PE cells, Cl− currents; assay: Ruptured-patch whole-cell recording of PE cells; assay type: cell-based
# Description: Harvested cultured PE cells were resuspended and permitted to settle and attach to glass coverslips, which were then transferred to a perfusion chamber (Carré et al., supra., 1997). Solutions were designed to isolate any Cl^- current activated by ATP. […] (Am. J. Physiol., 261:[…]-[…], 1991), as previously described (Carré et al., supra., 1997). Cells were patched while still round, usually one day after dissociation. […] Data were acquired at 1 kHz using Axopatch-1B electronics and associated headstage (Axon Instruments, Foster City, Calif.) and filtered at 500 Hz with a Bessel filter. The micropipettes were double-pulled from Corning No. 7052 glass, coated with Sylgard and fire polished. The membrane potential was held without series-resistance compensation at 0 mV and stepped to voltages over the range from -100 to +100 mV in 20 mV increments for 200 msec periods. The mean current measured between 150-200 msec was used to obtain the patch-clamp data used here. The data presented in FIG. 2 was obtained at -60 mV [the approximate membrane potential (Green et al., Invest. Ophthalmol. Vis. Sci., 26:371-381, 1985)] to facilitate comparison with the volumetric data.
# [2] = tested on: bovine pigmented ciliary epithelial (PE) cells; assay: Cell volume (shrinkage) of PE cells in isoosmotic suspension, Coulter Counter; assay type: cell-based
# human A3 receptor [3] = biological target: T1, human A3 receptor (Homo sapiens, UniProt P0DMS8); assay: Radioligand binding, [125I]AB-MECA, HEK-293 cell membranes; parameters: host or cells: HEK-293; details: read-out: Ki(hA3)
# T1 sequence (P0DMS8 1-318): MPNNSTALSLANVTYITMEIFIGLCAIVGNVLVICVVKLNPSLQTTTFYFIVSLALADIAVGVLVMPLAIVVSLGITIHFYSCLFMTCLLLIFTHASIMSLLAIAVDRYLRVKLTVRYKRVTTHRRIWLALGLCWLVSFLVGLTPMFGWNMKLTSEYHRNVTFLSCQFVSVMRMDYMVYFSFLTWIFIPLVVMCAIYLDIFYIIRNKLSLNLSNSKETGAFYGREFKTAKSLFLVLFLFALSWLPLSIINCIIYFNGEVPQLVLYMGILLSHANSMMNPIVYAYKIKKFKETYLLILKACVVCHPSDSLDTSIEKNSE
# Method: Natl. Acad. Sci. […] Natl. Acad. Sci. U.S.A. 89:7432-7436, 1992) was performed as described at 4° C. (Olah et al., Mol. Pharmacol. 45:978-982, 1994). The assay medium consisted of a buffer containing 10 mM Mg^2+, 50 mM Tris, 3 units/mL adenosine deaminase, and 1 mM EDTA, at pH 8.0 (4° C.). […] Incubations were terminated by rapid filtration over Whatman GF/B filters, using a Brandell cell harvester (Brandell, Gaithersburg, MD). The tubes were rinsed three times with 3 mL buffer each. At least five different concentrations of competitor, spanning 3 orders of magnitude adjusted appropriately for the IC50 of each compound, were used. IC50 values, calculated with the nonlinear regression method implemented in the InPlot program (Graph-PAD, San Diego, Calif.), were converted to apparent Ki values using the Cheng-Prusoff equation (Cheng et al., Biochem.
# A1 receptors = biological target: T2, A1 receptors (Rattus norvegicus, UniProt P25099); assay: Radioligand binding, [3H]R-PIA, rat cerebral cortex membranes
# T2 construct: A1 receptors from rat cerebral cortex membranes; from tissue; host or cells: rat cerebral cortex membranes
# T2 sequence (P25099 1-326): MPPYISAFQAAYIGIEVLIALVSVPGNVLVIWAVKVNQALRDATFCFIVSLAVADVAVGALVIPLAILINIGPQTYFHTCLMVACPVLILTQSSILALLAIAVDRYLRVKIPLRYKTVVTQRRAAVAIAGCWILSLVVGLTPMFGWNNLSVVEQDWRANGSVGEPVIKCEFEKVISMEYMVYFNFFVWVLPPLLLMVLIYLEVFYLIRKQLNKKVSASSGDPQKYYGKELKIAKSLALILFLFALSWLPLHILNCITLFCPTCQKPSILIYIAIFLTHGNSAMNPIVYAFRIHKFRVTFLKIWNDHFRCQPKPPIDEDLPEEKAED
# Method: Radioligand binding studies. Binding of [^3H]R-N^6-phenylisopropyladenosine ([^3H]R-PIA) to A1 receptors from rat cerebral cortex membranes and of [^3H]-2-[4-[(2-carboxyethyl)phenyl]ethylamino]-5′-N-ethylcarbamoyladenosine ([^3H]CGS 21680) to A2A receptors from rat striatal membranes was performed as described previously (Schwabe et al., Naunyn Schmiedeberg Arch. Pharmacol. 313:179-187, 1980; Jarvis et al., J. Pharmacol. Exp. Ther. 251:888-893, 1989) Adenosine deaminase (3 units/mL) was present during the preparation of the brain membranes, in a pre-incubation of 30 min at 30° C., and during the incubation with the radioligands. Nonspecific binding was determined in the presence of 10 μM (A1 receptors) or 20 μM (A2A receptors)2-chloroadenosine.
# All non-radioactive compounds were initially dissolved in DMSO, and diluted with buffer to the final concentration, where the amount of DMSO never exceeded 1%. Incubations were terminated by rapid filtration over Whatman GF/B filters, using a Brandell cell harvester (Brandell, Gaithersburg, MD). The tubes were rinsed three times with 3 mL buffer each.
# At least five different concentrations of competitor, spanning 3 orders of magnitude adjusted appropriately for the IC50 of each compound, were used.
# [4] = tested on: HCE (human ciliary epithelial) cell line, NPE cells; details: read-out: EC50 for isoosmotic shrinkage of cultured human NPE cells; cited from earlier work
# human A3 receptor [5] = biological target: T1, human A3 receptor; assay: Adenylate cyclase assay, CHO cell membranes, forskolin stimulated; assay type: biochemical
# Water solubility = assay type: physicochemical; details: room temperature
# Method: 100 μL of de-ionized water was saturated with 5 mg 11 with heating. After cooling to room temperature and the disappearance of turbidity, 50 μL of the clear supernatant was withdrawn and lyophilized to give 1.1 mg of 11.
# [6] = tested on: HCE (human ciliary epithelial) cell line, NPE cells; assay: Cell volume (shrinkage) of NPE cells in isosmotic solution, Coulter Counter, 5 μM gramicidin; assay type: cell-based; details: 300 nM MRS-1097, 100 nM MRS-1191, 100 nM MRS-1523, 10 μM adenosine
# Method: A 0.5-ml aliquot of the HCE cell suspension in DMEM was added to 20 ml of each test solution, which contained (in mM): 110.0 NaCl, 15.0HEPES [4-(2-hydroxyethyl)-1-piperazineethanesulfonic acid], 2.5 CaCl2, 1.2 MgCl2, 4.7 KCl, 1.2 KH2PO4, 30.0 NaHCO3, and 10.0 glucose, at a pH of 7.4 and osmolality of 298-305 mOsm. Parallel aliquots of cells were studied on the same day. One aliquot usually served as a control, and the others were exposed to different experimental conditions at the time of suspension. The same amount of solvent vehicle (dimethylformamide, DMSO or ethanol) was always added to the control and experimental aliquots. The sequence of studying the suspensions was varied to preclude systematic time-dependent artifacts (Civan et al., Exp. Eye Res. 54:181-191, 1992).
# Cell volumes of isosmotic suspensions were measured with a Coulter Counter (model ZBI-Channelyzer II), using a 100-μm aperture (Civan et al., supra., 1994). As previously described (Wax et al., supra., 1993), the cell volume (vC) of the suspension was taken as the peak of the distribution function. Cell shrinkage was fit as a function of time (t) to a monoexponential function:
# vC=v∞+(v0−v∞)−[e^−(t−t^0^)/τ] {1}
# where v∞ is the steady-state cell volume, v0 is the cell volume at the first point (t0) of the time course to be fit, and τ is the time constant of the shrinkage. For purposes of data reduction, the data were normalized to the first time point, taken to be 100% isotonic volume. Fits were obtained by nonlinear least-squares regression analysis, permitting both v∞and τ to be variables.
# In order to differentiate among these receptors, the experiments were repeated in the present study using a series of agonists and antagonists selective for these receptors. As we wished to identify the effects of these receptors specifically on Cl^− channels, 5 μM gramicidin D was included in all solutions to eliminate any potential contribution from K^+ channels. This ionophore readily partitions into plasma membranes to form a cation-selective pore, and is widely used for studying volume regulation (Hoffmann et al., in Interaction of Cell Volume and Cell Function, Lang et al., eds., Springer, Heidelberg, Germany, pp. 188-248, (ACEP Series 14), 1993)). Under these conditions, release of cell Cl^− becomes the rate-limiting factor in both hypo-(Civan et al., Exp. Eye Res. 54:181-191, 1992) and isoosmotic cell shrinkage (Carre et al., supra., 1997).
# human A2 receptors = details: read-out: Ki for binding to human A2 receptors; cited from earlier work
# human A3 receptor [7] = biological target: T1, human A3 receptor; details: read-out: Ki for binding to human A3 receptors; cited from earlier work
smiles,measurement,setting,value
"O=C(O)c1cc([N+](=O)[O-])ccc1NCCCc1ccccc1 [NPPB, 5-nitro-2-(3-phenylpropylamino)-benzoate]",reduction of the ATP-enhanced currents,"[1]; 100 μM NPPB, −60 mV",56±11%
same,effect of NPPB on ATP-stimulated current,[1]; FIG. 9B,partially inhibited
same,"effect of Cl− channel blocker on ATP, tamoxifen-activated shrinkage","[2]; DIDS 500 μM, NPPB 100 μM",inhibited the volume reduction; also recorded: abolished the synergistic shrinkage
"CCOC(=O)c1c(CC)c(C(=O)SCC)c(CC)[n+](C)c1C1CCCC1 [Compound 23, 1-Methyl-2,4-diethyl-3-(ethylsulfanylcarbonyl)-5-ethyloxycarbonyl-6-cyclopentylpyridinium Iodide]",Ki,human A3 receptor [3],695 nM
same,Ki,A1 receptors,11.5 µM
Nc1ncnc2c1ncn2[C@@H]1O[C@H](CO)[C@@H](O)[C@H]1O [adenosine],EC50,[4],3 to 10 µM
Nc1ncnc2c1ncn2[C@@H]1O[C@H](COP(=O)(O)OP(=O)(O)OP(=O)(O)O)[C@@H](O)[C@H]1O [ATP],effect of ATP on whole-cell current,"[1]; 1 mM ATP, holding potential −60 mV, cultured bovine PE cell",reversible and reproducible increases in inward current
same,trials with current activated by ATP,[1]; cultured PE cells,10/17
same,trials with current activated by ATP,[1]; fresh bovine PE cells,3/9
same,steady-state cell volume (v∞),"[2]; 3 μM ATP alone, FIG. 8B",98.0±0.4%
same,time constant of the shrinkage (τ),"[2]; 3 μM ATP alone, FIG. 8B",10.8 ± 4.9 min
same,steady-state cell volume (v∞),"[2]; 10 μM ATP alone, FIG. 8A",94.3±0.3%
same,time constant of the shrinkage (τ),"[2]; 10 μM ATP alone, FIG. 8A",2.8 ± 0.7 min
same,steady-state cell volume (v∞),"[2]; 10 μM ATP alone, FIG. 8B",97.2±0.3%
same,time constant of the shrinkage (τ),"[2]; 10 μM ATP alone, FIG. 8B",1.6 ± 1.0 min
same,steady-state cell volume (v∞),"[2]; 10 μM ATP alone, FIG. 10A",97.2±0.3%
same,time constant of the shrinkage (τ),"[2]; 10 μM ATP alone, FIG. 10A",1.6 ± 1.0 min
same,steady-state cell volume (v∞),"[2]; 100 μM ATP alone, FIG. 8A",94.3±0.3%
same,time constant of the shrinkage (τ),"[2]; 100 μM ATP alone, FIG. 8A",2.8 ± 0.7 min
same,steady-state cell volume (v∞),"[2]; 100 μM ATP alone, FIG. 13A",94.9±1.0%
same,time constant of the shrinkage (τ),"[2]; 100 μM ATP alone, FIG. 13A",45.2 ± 14.0 min
same,steady-state cell volume (v∞),"[2]; 100 μM ATP alone, FIG. 13B",87.5±1.8%
same,time constant of the shrinkage (τ),"[2]; 100 μM ATP alone, FIG. 13B",45.2 ± 14.0 min
same,steady-state cell volume (v∞),"[2]; 100 μM ATP alone, FIG. 13C",93.9±1.7%
same,time constant of the shrinkage (τ),"[2]; 100 μM ATP alone, FIG. 13C",34.8 ± 13.8 min
same,steady-state cell volume (v∞),"[2]; 100 μM ATP alone, FIG. 14B",96.8±0.5%
same,time constant of the shrinkage (τ),"[2]; 100 μM ATP alone, FIG. 14B",8.3 ± 3.7 min
same,steady-state cell volume (v∞),"[2]; 10 mM ATP alone, FIG. 10A",97.7±0.2%
same,time constant of the shrinkage (τ),"[2]; 10 mM ATP alone, FIG. 10A",2.2 ± 0.8 min
same,share of volumetric studies in which ATP alone produced shrinkage,[2]; ATP alone,approximately 15%
same,EC50,"[2]; in the presence of tamoxifen, read-out: ATP concentration eliciting approximately half-maximal response",~3000 nM
"CCOC(=O)C1=C(C2CCCC2)N(C)C(CC)=C(C(=O)SCC)C1CC (stereo not shown) [Compound 25, 1-Methyl-2,4-diethyl-3-(ethylsulfanylcarbonyl)-5-ethyloxycarbonyl-6-cyclopentyl-1,4-dihydropyridine]",Ki,human A3 receptor [3],6400 ± 780 nM
same,displacement at rat A1 receptors,A1 receptors; at 100 μM,34 ±1%
"CCOC(=O)c1c(CC)c(C(=O)SCC)c(CC)[n+](C)c1-c1ccccc1.[I-] [Compound 11, 1-Methyl-2,4-Diethyl-3-(ethylsulfanylcarbonyl)-5-ethyloxycarbonyl-6-phenylpyridinium Iodide]",Ki,human A3 receptor [3],219 nM
same,KB relative to the Ki value in binding to human A3 receptors,human A3 receptor [5],approximately 1.8 times
same,shift of the IB-MECA concentration response curve to the right,human A3 receptor [5]; 10 μM of 11,26 fold
same,Kb,human A3 receptor [5]; read-out: KB value (Schild analysis),399 nM
same,solubility,"Water solubility; de-ionized water, water, thermodynamic from solid",42.8 mM
same,water solubility,Water solubility; listed as MRS 1649,43 mM
CCCOC(=O)c1c(-c2ccccc2)nc(CC)c(C(=O)SCC)c1CCC [MRS-1523],effect of A3 antagonist on adenosine-stimulated isotonic shrinkage,[6],prevented the characteristic shrinkage
same,effect of A3 antagonist on adenosine-stimulated isotonic shrinkage,[6]; listed as MRS 1523,eliminated the actions of adenosine; also recorded: blocked the shrinkage
same,Ki,human A2 receptors,2050 nM
same,Ki,human A3 receptor [7],19 nM
